Measured values from patent publication US20230150979A1, “AMIDE-DISUBSTITUTED PYRIDINE OR PYRIDAZINE COMPOUNDS” (BRISTOL-MYERS SQUIBB COMPANY, priority 2019, published 2023).
pIC50: −log10 of the molar value.

Test system: IFNα-induced STAT phosphorylation (pSTAT5) in human whole blood, CD3 positive population
Assay: IFNα-Induced STAT Phosphorylation in Human Whole Blood
Format: cell-based
Settings: 1 h incubation with compound, 1000 U/mL recombinant human IFNα A/D for 15 min, pSTAT5 (pY694) median fluorescence in CD3 positive cells, read-out: Human WB IFNα-Induced Stat Phosph. (IC50)
Description: IFNα-Induced STAT Phosphorylation in Human Whole Blood
After an hour long incubation with compound, human whole blood (drawn with either EDTA or ACD-A as anti-coagulant) was stimulated with 1000 U/mL recombinant human IFNα A/D (R&D Systems 11200-2) for 15 min. The stimulation was stopped by adding Fix/Lyse buffer (BD 558049). Cells were stained with a CD3 FITC antibody (BD 555916), washed, and permeabilized on ice using Perm III buffer (BD 558050). Cells were then stained with an Alexa-Fluor 647 pSTAT5 (pY694) antibody (BD 612599) for 30 min prior to analysis on the FACS Canto II. The amount of pSTAT5 expression was quantitated by median fluorescence intensity after gating on the CD3 positive population.

Row | pIC50 | SMILES
1 | 6.70 | [2H]C([2H])([2H])NC(=O)c1nnc(NC(=O)NC(C)CC)cc1Nc1cccc(-c2ncn(C)n2)c1OC (centres unmarked) [Example 48]
2 | 6.85 | [2H]C([2H])([2H])NC(=O)c1cnc(NC(=O)NCC)cc1Nc1cccc(-c2noc(C)n2)c1OC [Example 72]
3 | 7.15 | COC(=O)Nc1cc(Nc2cccc(-c3ncn(C)n3)c2OC)c(C(N)=O)nn1 [Example 1, Methyl (6-carbamoyl-5-((2-methoxy-3-(1-methyl-1H-1,2,4-triazol-3-yl)phenyl)amino)pyridazin-3-yl)carbamate]
4 | 6.38 | [2H]C([2H])([2H])NC(=O)c1cnc(NC(=O)OCC)cc1Nc1cccc(-c2nnn(C)n2)c1OC [Example 21]
5 | 7.22 | [2H]C([2H])([2H])NC(=O)c1nnc(NC(=O)OC)cc1Nc1cccc(-c2noc(CN3CCCCS3(=O)=O)n2)c1OC [Example 61]
6 | 5.99 | [2H]C([2H])([2H])NC(=O)c1nnc(NC(=O)OC)cc1Nc1cccc(-c2noc(CCS(C)(=O)=O)n2)c1OC [Example 69]
7 | 5.93 | [2H]C([2H])([2H])NC(=O)c1nnc(NC(=O)Nc2ccccn2)cc1Nc1cccc(-c2ncn(C)n2)c1OC [Example 25]
8 | 7.22 | [2H]C([2H])([2H])NC(=O)c1nnc(NC(=O)NCC=C)cc1Nc1cccc(-c2ncn(C)n2)c1OC [Example 37]
9 | 5.61 | [2H]C([2H])([2H])NC(=O)c1nnc(NC(=O)N(C)CCc2ccccc2)cc1Nc1cccc(-c2ncn(C)n2)c1OC [Example 39]
10 | 6.89 | [2H]C([2H])([2H])NC(=O)c1nnc(NC(=O)OC)cc1Nc1cccc(-c2noc(CN3CCN(S(C)(=O)=O)CC3)n2)c1OC [Example 66]
11 | 6.96 | COC(=O)Nc1cc(Nc2cccc(-c3noc(CN4CCOCC4)n3)c2OC)c(C(N)=O)nn1 [Example 56]
12 | 6.28 | [2H]C([2H])([2H])NC(=O)c1nnc(NC(=O)NCC)cc1Nc1ccccc1S(C)(=O)=O [Example 15]
13 | 6.28 | [2H]C([2H])([2H])NC(=O)c1nnc(NC(=O)Nc2ccccc2)cc1Nc1cccc(-c2ncn(C)n2)c1OC [Example 34]
14 | 6.60 | [2H]C([2H])([2H])NC(=O)c1nnc(NC(=O)OC)cc1Nc1cccc(-c2ncc(C(=O)N3CCC(N4CCN(CCO)CC4)CC3)s2)c1OC [Example 57]
